Test systems include HOP-92 NSCLC; SF-295 CNS; OVCAR-8 ovarian; SN12C renal; HL-60(TB) leukemia; 786-0 renal; HT29 colon; NCI-H460 lung; SR leukemia; OVCAR-3 ovarian.
Holding throughout (assay): DTP human tumour cell line panel, 48 h

We go through six compounds from PubChem BioAssay (NCI).

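Test compounds were applied to cells in 96-well plates for 48 hours at 5 doses. Here, GI50 denotes the concentration required for 50% inhibition of growth. At the TGI there is no net growth.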

Regarding `COc1cc2ncn(-c3cc(OCc4cccs4)c(C(N)=O)s3)c2cc1OC`, the GI50 in the assay with HOP-92 NSCLC was 4.38 µM; in the assay on SF-295 CNS, 1.59 µM; in the assay on OVCAR-8 ovarian it was 1.52 µM; with SN12C renal, 2.8 µM; in the assay with HL-60(TB) leukemia, 0.804 µM; in the assay with 786-0 renal it was 4.86 µM. Moreover, the GI50 in the assay with HT29 colon is 0.875 µM; in the assay on NCI-H460 lung, 1.06 µM; in the assay with SR leukemia, 1.48 µM; in the assay with OVCAR-3 ovarian, 0.828 µM. The TGI is more than 22 µM in the assay with HOP-92 NSCLC; more than 25 µM with SF-295 CNS; more than 17 µM in the assay on OVCAR-8 ovarian; more than 25 µM with SN12C renal; 8.73 µM with HL-60(TB) leukemia; more than 25 µM in the assay with 786-0 renal. Besides, the TGI was more than 25 µM with HT29 colon, more than 10.5 µM with NCI-H460 lung, more than 25 µM with SR leukemia and more than 6.89 µM in the assay with OVCAR-3 ovarian.
Consider `O=c1cc(-c2ccccc2)oc2cc(OC/C(=N/O)c3ccccc3)ccc12`, for which the GI50 in the assay on HOP-92 NSCLC is 13.8 µM; in the assay on SF-295 CNS, 6 µM; in the assay on OVCAR-8 ovarian, 32.8 µM; in the assay with SN12C renal, 10.9 µM; in the assay with HL-60(TB) leukemia it was more than 50 µM; with 786-0 renal, 26.1 µM. Moreover, the GI50 in the assay with HT29 colon is 22.4 µM; with NCI-H460 lung, 14.2 µM; with SR leukemia it was 31.8 µM; in the assay on OVCAR-3 ovarian it was 12.8 µM. Moreover, the TGI was more than 50 µM with HOP-92 NSCLC; 23.4 µM with SF-295 CNS; more than 50 µM in the assay on OVCAR-8 ovarian; 44.6 µM in the assay with SN12C renal; more than 50 µM with HL-60(TB) leukemia; more than 50 µM with 786-0 renal. Further, the TGI in the assay with HT29 colon, in the assay on NCI-H460 lung, in the assay with SR leukemia and in the assay on OVCAR-3 ovarian was more than 50 µM throughout.
Consider `COc1cc[nH]c1/C=C1\C(=O)Nc2ccc(F)c(C#CC3(O)CCNCC3)c21`, for which the GI50 was 0.106 µM in the assay on HOP-92 NSCLC; 0.287 µM in the assay on SF-295 CNS; 0.172 µM in the assay with OVCAR-8 ovarian; 0.0626 µM with SN12C renal; 0.0532 µM with HL-60(TB) leukemia; 0.106 µM in the assay with 786-0 renal. In addition, the concentration for 50% growth inhibition (GI50) in the assay with HT29 colon was 0.0916 µM; with NCI-H460 lung, 0.0778 µM; in the assay on SR leukemia, 0.00864 µM; in the assay with OVCAR-3 ovarian, 0.35 µM. For the same compound, the TGI is 0.794 µM in the assay on HOP-92 NSCLC; 2.8 µM in the assay with SF-295 CNS; 1.65 µM with OVCAR-8 ovarian; 2.5 µM in the assay on SN12C renal; 0.228 µM in the assay on HL-60(TB) leukemia; 1.68 µM with 786-0 renal. In addition, the TGI was 1.1 µM in the assay on HT29 colon, 0.747 µM in the assay with NCI-H460 lung, 0.141 µM in the assay on SR leukemia and 1.55 µM in the assay with OVCAR-3 ovarian.
Regarding `N#CSC1CCCCNC1=O` (stereo not given), the TGI came to 20.9 µM in the assay with HOP-92 NSCLC; 30.7 µM in the assay on SF-295 CNS; 33.6 µM in the assay on OVCAR-8 ovarian; 30.8 µM in the assay on SN12C renal; 87.4 µM in the assay on HL-60(TB) leukemia; 32.6 µM in the assay with 786-0 renal. The TGI with HT29 colon was determined as 26.5 µM; with NCI-H460 lung, 28.7 µM; in the assay with SR leukemia, 38.9 µM; with OVCAR-3 ovarian it was 29.5 µM.
Take `O=C(O)CCNC1CCCCC1`: the GI50 with HOP-92 NSCLC, with SF-295 CNS, with OVCAR-8 ovarian, with SN12C renal, in the assay with HL-60(TB) leukemia and with 786-0 renal was more than 100 µM throughout. In addition, the GI50 in the assay on HT29 colon, in the assay with NCI-H460 lung, in the assay with SR leukemia and in the assay on OVCAR-3 ovarian was more than 100 µM in each case. The TGI in the assay on HOP-92 NSCLC, with SF-295 CNS, with OVCAR-8 ovarian, in the assay with SN12C renal, in the assay with HL-60(TB) leukemia and in the assay with 786-0 renal was more than 100 µM each time. The TGI in the assay with HT29 colon, with NCI-H460 lung, in the assay with SR leukemia and with OVCAR-3 ovarian was more than 100 µM each time.
On to `CC/C=C\C[C@@H](O)C/C=C1/C(=O)C=C[C@H]1C/C=C\CCCC(=O)OC`, for which the GI50 in the assay on HOP-92 NSCLC was 4.54 µM; in the assay on SF-295 CNS, 2.97 µM; in the assay with OVCAR-8 ovarian, 3.26 µM; in the assay on SN12C renal, 4.64 µM; with HL-60(TB) leukemia it was 1.96 µM; with 786-0 renal it was 3.29 µM. Besides, the GI50 in the assay with HT29 colon is 2.36 µM; with NCI-H460 lung, 3.45 µM; with SR leukemia it was 0.686 µM; with OVCAR-3 ovarian it was 3.1 µM. In addition, the TGI in the assay with HOP-92 NSCLC came to 15.2 µM; in the assay on SF-295 CNS, 9.27 µM; with OVCAR-8 ovarian, 10.4 µM; in the assay with SN12C renal, 19.3 µM; with HL-60(TB) leukemia, 5.48 µM; in the assay with 786-0 renal, 11.5 µM. Moreover, the TGI in the assay on HT29 colon stood at 5.74 µM; in the assay on NCI-H460 lung, 11.8 µM; with SR leukemia, 4 µM; in the assay with OVCAR-3 ovarian it was 10.3 µM.

What is called GI50 is the concentration that inhibits growth by half. As usually defined, the TGI is the concentration at which net growth stops. Read a high TGI as lower sensitivity of the cells.
